The values below come from patent US20090012079A1, “Triazolopyridine Compounds” (priority 2006, published 2009).

SMILES strings stand for the structures.

The term IC50 denotes the concentration at which inhibition is half-maximal.

The subject of the assay is TNFα release from human peripheral blood mononuclear cells. The assay can be described thus: TNFα screen: inhibition of LPS-stimulated TNFα release from human peripheral blood mononuclear cells (ELISA). The format is cell-based. As to conditions: human PBMC, LPS stimulation, 18 hours incubation, TNFα in supernatant by ELISA; read-out: TNF IC50. The procedure: Venous blood is collected from healthy volunteers and the mononuclear cells purified by centrifugation through Histopaque (Ficoll) cushions. TNFα production from these cells is stimulated by addition of lipopolysaccharide. After 18 hours incubation in the presence of LPS, the cell supernatant is removed and the concentration of TNFα in the supernatant determined by ELISA. Addition of the compounds of the invention reduces the amount of TNFα produced. An IC50 is determined which is equal to the concentration of compound that gives 50% inhibition of TNFα production as compared to the LPS stimulated control wells.
For orientation: An ELISA detects its analyte on a solid surface through an enzyme-linked reagent.
`CN(C)CCOc1cccc(-n2nc(C(C)(C)C)cc2NC(=O)NCc2ccccc2Sc2ccc3nnc(-c4cc(Cl)ccc4O)n3c2)c1` [Example 1, 1-{5-tert-Butyl-2-[3-(2-dimethylaminoethoxy)phenyl]-2H-pyrazol-3-yl}-3-{2-[3-(5-chloro-2-hydroxyphenyl)-[1,2,4]triazolo[4,3-a]pyridin-6-ylsulfanyl]benzyl}urea]: the IC50 came out at 5.6 nM. In the case of `CSCC(C)(C)c1cc(NC(=O)NCc2ccccc2Sc2ccc3nnc(-c4cc(O)ccc4Cl)n3c2)n(-c2cccc(CN(C)C)c2)n1` [Example 2, 1-{2-[3-(2-Chloro-5-hydroxy-phenyl)-[1,2,4]triazolo[4,3-a]pyridin-6-ylsulfanyl]benzyl}-3-[2-(3-dimethylaminomethyl-phenyl)-5-(1,1-dimethyl-2-methylsulfanylethyl)-2H-pyrazol-3-yl]urea], the IC50 was determined as 2.9 nM. As for `CN(C)Cc1cccc(-n2nc(C(C)(C)C)cc2NC(=O)NCc2ccccc2Sc2ccc3nnc(-c4cc(Cl)ccc4O)n3c2)c1` [Example 3, 1-[5-tert-Butyl-2-(3-dimethylaminomethylphenyl)-2H-pyrazol-3-yl]-3-(2-[3-(5-chloro-2-hydroxyphenyl)-[1,2,4]triazolo[4,3-a]pyridin-6-ylsulfanyl]benzyl)urea], the figure is 4 nM; as for `CN(C)Cc1cccc(-n2nc(C(C)(C)C)cc2NC(=O)NCc2ccccc2Sc2ccc3nnc(-c4cc(O)ccc4Cl)n3c2)c1` [Example 4, 1-[5-tert-Butyl-2-(3-dimethylaminomethylphenyl)-2H-pyrazol-3-yl]-3-{2-[3-(2-chloro-5-hydroxy-phenyl)-[1,2,4]triazolo[4,3-a]pyridin-6-ylsulfanyl]benzyl}urea], 8.2 nM; as for `CC(C)(C)c1cc(NC(=O)NCc2ccccc2Sc2ccc3nnc(-c4cc(Cl)ccc4O)n3c2)n(-c2cccc(CN3CCOCC3)c2)n1` [Example 5, 1-[5-tert-Butyl-2-(3-morpholin-4-ylmethylphenyl)-2H-pyrazol-3-yl]-3-{2-[3-(5-chloro-2-hydroxyphenyl)-[1,2,4]triazolo[4,3-a]pyridin-6-ylsulfanyl]benzyl}urea], 2.5 nM. To `CC(C)(C)c1cc(NC(=O)NCc2ccccc2Sc2ccc3nnc(-c4cc(O)ccc4Cl)n3c2)n(-c2cccc(CN3CCOCC3)c2)n1` [Example 6, 1-[5-tert-Butyl-2-(3-morpholin-4-ylmethylphenyl)-2H-pyrazol-3-yl]-3-{2-[3-(2-chloro-5-hydroxyphenyl)-[1,2,4]triazolo[4,3-a]pyridin-6-ylsulfanyl]benzyl}urea] belongs 1.8 nM; to `CC(C)(C)c1cc(NC(=O)NCc2ccccc2Sc2ccc3nnc(-c4ccc(CN5CCOCC5)cc4)n3c2)n(-c2ccc(Cl)c(O)c2)n1` [Example 7, 1-[5-tert-Butyl-2-(4-chloro-3-hydroxyphenyl)-2H-pyrazol-3-yl]-3-{2-[3-(4-morpholin-4-ylmethylphenyl)-[1,2,4]triazolo[4,3-a]pyridin-6-ylsulfanyl]benzyl}urea], 3 nM; to `CC(C)(C)c1cc(NC(=O)NCc2ccccc2Sc2ccc3nnc(-c4ccc(CN5CCOCC5)cc4)n3c2)n(-c2ccc(O)c(Cl)c2)n1` [Example 8, 1-[5-tert-Butyl-2-(3-chloro-4-hydroxyphenyl)-2H-pyrazol-3-yl]-3-{2-[3-(4-morpholin-4-ylmethylphenyl)-[1,2,4]triazolo[4,3-a]pyridin-6-ylsulfanyl]benzyl}urea], 5.5 nM. To `CC(C)(C)c1cc(NC(=O)NCc2ccccc2Sc2ccc3nnc(-c4cccc(OCCN5CCOCC5)c4)n3c2)n(-c2ccc(O)c(Cl)c2)n1` [Example 9, 1-[5-tert-Butyl-2-(3-chloro-4-hydroxyphenyl)-2H-pyrazol-3-yl]-3-(2-{3-[3-(2-morpholin-4-ylethoxy)phenyl]-[1,2,4]triazolo[4,3-a]pyridin-6-ylsulfanyl}benzyl)urea] belongs 5.6 nM; to `CC(C)(C)c1cc(NC(=O)NCc2ccccc2Sc2ccc3nnc(-c4cccc(OCCN5CCOCC5)c4)n3c2)n(-c2ccc(Cl)c(O)c2)n1` [Example 10, 1-[5-tert-Butyl-2-(4-chloro-3-hydroxyphenyl)-2H-pyrazol-3-yl]-3-(2-{3-[3-(2-morpholin-4-yl-ethoxy)phenyl]-[1,2,4]triazolo[4,3-a]pyridin-6-ylsulfanyl}benzyl)urea], 4.3 nM; to `CSCC(C)(C)c1cc(NC(=O)NCc2ccccc2Sc2ccc3nnc(-c4cc(Cl)ccc4O)n3c2)n(-c2cccc(CN(C)C)c2)n1` [Example 11, 1-{2-[3-(5-Chloro-2-hydroxy-phenyl)-[1,2,4]triazolo[4,3-a]pyridin-6-ylsulfanyl]benzyl}-3-[2-(3-dimethylaminomethyl-phenyl)-5-(1,1-dimethyl-2-methylsulfanylethyl)-2H-pyrazol-3-yl]urea], 4.9 nM.
